Legend:
Sprague Dawley rats [1] = experiment: Indirect calorimetry after burn injury in a rat model (Example 1); assay type: in vivo; conditions: 30% TBSA full thickness burn, SS-31 2 mg/kg IV q12h for three days, n = 3
Experimental: Sprague Dawley rats were randomized into three groups; sham-burn (SB), burn with saline treatment (B) and burn with peptide treatment (BP). Catheters were surgically placed into jugular vein and carotid artery. B and BP animals received 30% total body surface area full thickness burns by immersing the dorsal part into 100° C. water for 12 seconds with immediate fluid resuscitation. BP animals received IV injection of SS-31 (2 mg/kg every 12 h) for three days (FIG. 1). The EE of the animals were constantly monitored for 12 hours in a TSE Indirect Calorimetry System (TSE Co. Germany).

apoptosis in the liver = experiment: Liver apoptosis by TUNEL method after burn injury (Example 2); assay type: in vivo, mouse; conditions: C57BL mice, 30% TBSA burn, 5 mg/kg daily; days 1, 3, 7, effects most obvious on day 7 post-burn
Experimental: (§1) Systemic inflammatory response syndrome (SIRS) and multiple organ failure (MOF) are leading causes of morbidity and mortality in severe burn patients. In this Example, the effects of the aromatic-cationic peptides of the invention on liver damage in a mouse model of burn injury were examined. Six to eight week old male C57BL mice were subjected to 30% total body surface area (TBSA) burn injury and subsequently injected daily with saline or SS-31 peptide (5 mg/kg body weight). A weight- and time-matched sham-burn group subjected to lukewarm (˜37° C.) water but otherwise treated exactly the same served as controls (FIG. 3). The liver tissues were collected 1, 3, and 7 days after burn injury treatment and used to examine apoptosis by TUNEL method, activated caspase protein levels by Western blots, and caspase activity by an enzymatic reaction assay.

caspase-3 [2] = experiment: Activated caspase protein levels in liver by Western blots (Example 2); assay type: in vivo, mouse; conditions: C57BL mice, 30% TBSA burn, 5 mg/kg daily; day 3 and 7 post-burn
Experimental: as §1

caspase-3 [3] = experiment: Liver caspase activity by an enzymatic reaction assay (Example 2); assay type: in vivo, mouse; conditions: C57BL mice, 30% TBSA burn, 5 mg/kg daily
Text: FIG. 6 is a graph showing caspase-3 activity from the various treatment groups of Example 2.
as §1

protein oxidation = experiment: Liver protein oxidation by western blot (Example 2); assay type: in vivo, mouse; conditions: C57BL mice, 30% TBSA burn, 5 mg/kg daily
Text: FIG. 7 is a photograph of a western blot analysis showing protein oxidation from the various treatment groups of Example 2.
as §1

Sprague-Dawley rats = experiment: Wound contraction after burn injury, area of the scab (Example 3); assay type: in vivo, rat; conditions: 65° C. water 25 sec, 1 mg IP one hour prior to burn, 1 mg topical, 1 mg IP every 12 h for 72 h, time points ≧8 days post-burn, p=0.06 by ANOVA
Experimental: Sprague-Dawley rats (male, 300-350 g) were pre-treated with 1 mg SS-31 peptide administered IP (this corresponds to about 3 mg/kg) one hour prior to burn (65° C. water for 25 sec on the lower back), followed by topical treatment (1 mg on top of the wound), and 1 mg SS-31 peptide administered IP every 12 h for 72 h. Wounds were observed up to ˜3 weeks post-burn. In general, the wounds took the appearance of a hard scab, and for the purpose of this experiment, the area of the scab was quantified as a measure of wound size. […] Treatment with SS-31 slowed the wound contraction, which indicates the burn injury was less severe compared to burns in animals without the peptide treatment. As such, the aromatic-cationic peptides of the invention are useful in methods of treating wounds associated with a burn injury.

[4] = test system: redox state of the gastrocnemius muscle; experiment: Redox state of gastrocnemius muscle by nitroxide EPR after local burn (Examples 4 and 8); assay type: in vivo, mouse; conditions: mice
Experimental: A clinically relevant murine nonlethal local burn injury model was used to address whether aromatic-cationic peptides can prevent/attenuate the adverse effects of burn injury on mitochondrial dysfunction and ER stress. The redox state of the gastrocnemius muscle immediately below a local cutaneous burn (90° for 3 sec) was evaluated by nitroxide EPR.
Next, the effect of SS-31 peptide treatment administered IP 30 min before burn, and immediately after burn (3 mg/kg each dose) was tested.
(§2) Materials and Methods. Male 6-week-old CD1 mice weighing 20-25 g were anesthetized by intraperitoneal (i.p.) injection of 40 mg/kg pentobarbital sodium. The left hind limb of all mice in all groups was shaved. Each burned mouse was subjected to a nonlethal scald injury of 3-5% total body surface area (TBSA) by immersing its left hind limb in 90° C. water for 3 sec.
EPR spectroscopy is described in detail in Khan et al. “Burn Trauma in skeletal muscle results in oxidative stress as assessed by in vivo electron paramagnetic resonance.” Mol Med Reports 1: 813-819 (2008). Briefly, mice were randomized into burn, burn+SS-31 peptide and control groups. The SS-31 peptide (3 mg/kg) was injected intraperitoneally at 0, 3, 6, 24, and 48 hours post-burn. EPR measurements were carried out with a 1.2-GHz EPR spectrometer equipped with a microwave bridge and external loop resonator specially designed for in vive experiments. The optimal spectrometer parameters were: incident microwave power, 10 mW; magnetic field center, 400 gauss; modulation frequency, 27 kHz. The decay kinetics of intravenously-injected nitroxide (150 mg/kg) were measured at the various time points, which indicated the mitochondrial redox status of the muscle.

Sprague Dawley rats [5] = experiment: Indirect calorimetry 6 days after burn injury, 7-day infusion (Example 7); assay type: in vivo, rat; conditions: III degree 30% TBSA burns, 2 mg/kg priming then 4 mg/kg/day infused 7 days
Experimental: (§3) Methods. Sprague Dawley rats were randomly divided into 5 groups; sham (S), sham with saline treatment (SSal), sham with SS-31 treatment (SPep), burn with saline treatment (BSal) and burn with SS-31 treatment (BPep). In burn group, the back of animal was immersed into 100° C. water for 12 seconds to produce III degree 30% TBSA burns under general anesthesia. Sham burn was produced by immersing the lukewarm water in the same manner. Both groups of animals received 40 ml/kg intraperitoneal saline injection for the resuscitation following the injury. A venous catheter was placed surgically into the right jugular vein subsequent to sham or burn injury. SS-31 (2 mg/kg) or saline was injected as priming, and infused for 7 days (4 mg/kg/day) using osmotic pump (Durect, CA). […] The indirect calorimetry was performed for 24 hours at 6 days after burn injury in a TSE Indirect Calorimetry System (TSE Co. Germany), and VO2, VCO2 and energy expenditure were recorded every six minutes. Interscapullar brown adipose tissue was collected after the indirect calorimetry, and UCP-1 expression in the brown adipose tissue was evaluated by Western blot.

UCP-1 = UCP-1 expression in brown adipose tissue by Western blot (Example 7); assay type: in vivo, rat; conditions: rats, III degree 30% TBSA burns; 2 mg/kg priming then 4 mg/kg/day infused 7 days; p=0.057
Experimental: as §3

[6] = test system: ATP synthesis rate (Pi→γATP) in hindlimb skeletal muscle; experiment: In vivo 31P-NMR saturation transfer, ATP synthesis rate (Pi→γATP), mouse burn model (Examples 8 and 10)
Experimental: as §2
NMR spectroscopy is described in detail in Padfield, et al., Proc Natl Acad Sci USA 102: 5368-5373 (2005). Briefly, mice were randomized into burn, burn+SS-31 peptide, control, and control+peptide groups. The SS-31 peptide (3 mg/kg) was injected intraperitoneally at 30 min prior to burn and a second injection immediately after the burn. NMR experiments were performed in a horizontal bore magnet (proton frequency 400 MHz, 21 cm diameter, Magnex Scientific) using a Bruker Avance console. A 90° pulse was optimized for detection of phosphorus spectra (repetition time 2 s, 400 averages, 4K data points). Saturation 90°-selective pulse trains (duration 36.534 ms, bandwidth 75 Hz) followed by crushing gradients were used to saturate the γ-ATP peak. The same saturation pulse train was also applied downfield of the inorganic phosphate (Pi) resonance, symmetrically to the γ-ATP resonance. T1 relaxation times of Pi and phosphocreatine (PCr) were measured using an inversion recovery pulse sequence in the presence of γ-ATP saturation. […]
Values are means±SE; ΔM/M0 is the fractional change in Pi magnetization as a result of saturation transfer; T1obs is the observed spin lattice relaxation time of Pi during γATP saturation in seconds; ATP synthesis is calculated as [Pi]×k; [Pi] is the concentration of Pi extrapolated from the baseline NMR spectrum, comparing Pi and γATP peaks and ATP concentration measured with bioluminescence assay; k is calculated as (1/T1obs)×(ΔM/M0); P-values (unpaired Student's t-test) are for comparisons between experimental and control groups; * indicates only one dose of SS-31 peptide (3 mg/kg) was injected to animals immediately after burn.

[7] = test system: ATP synthesis rate (reaction PCr → γATP) in hindlimb skeletal muscle; experiment: In vivo 31P-NMR saturation transfer, ATP synthesis rate (reaction PCr→γATP), mouse burn model (Example 8)
Experimental: as §2
NMR spectroscopy is described in detail in Padfield, et al., Proc Natl Acad Sci USA 102: 5368-5373 (2005). Briefly, mice were randomized into burn, burn+SS-31 peptide, control, and control+peptide groups. The SS-31 peptide (3 mg/kg) was injected intraperitoneally at 30 min prior to burn and a second injection immediately after the burn. NMR experiments were performed in a horizontal bore magnet (proton frequency 400 MHz, 21 cm diameter, Magnex Scientific) using a Bruker Avance console. A 90° pulse was optimized for detection of phosphorus spectra (repetition time 2 s, 400 averages, 4K data points). Saturation 90°-selective pulse trains (duration 36.534 ms, bandwidth 75 Hz) followed by crushing gradients were used to saturate the γ-ATP peak. The same saturation pulse train was also applied downfield of the inorganic phosphate (Pi) resonance, symmetrically to the γ-ATP resonance. T1 relaxation times of Pi and phosphocreatine (PCr) were measured using an inversion recovery pulse sequence in the presence of γ-ATP saturation. An adiabatic pulse (400 scans, sweep with 10 KHz, 4K data) was used to invert Pi and PCr, with an inversion time between 152 ms and 7651 ms.

mitochondrial aconitase = experiment: Mitochondrial aconitase activity in 5% TBSA mice burn model (Example 9); assay type: in vivo, mouse; conditions: burned animals
Text: Mitochondrial aconitase is part of the TCA cycle and its activity has been directly correlated with the TCA flux. Moreover, its activity is inhibited by ROS and thus it is considered as an index of oxidative stress. Here we present the local and systematic effects of burn on the mitochondrial aconitase activity using a 5% TBSA mice burn model. The effects of a mitochondrial peptide (SS-31) had been also examined.

[8] = 3-5% TBSA burn, 3 mg/kg IP, 6 h after burn, p<0.05, 3 mg/kg
[9] = Controls + Peptide (n = 5), unburned CD1 mice, 3 mg/kg IP two injections

## D-Arg-2′,6′-dimethyltyrosine-Lys-Phe-NH2 [SS-31]
Sprague Dawley rats [1]
  RER: 0.669 ± 0.005
Apoptosis in the liver
  number of liver cells undergoing apoptosis (TUNEL): minimized the number of cells undergoing apoptosis
caspase-3 [2]
  activated form of caspase-3 protein levels in liver: reversed the increase in the activated form of caspase-3 protein levels on day 3 and 7 post-burn to the levels similar to those of sham control animals
caspase-3 [3]; day 3
  caspase activity in liver: trend for the increased caspase activity following burn injury to reverse
caspase-3 [3]; post-burn day 7
  caspase activity in liver: reduced the caspase activity to a level that was statistically not different from that of sham control group
Protein oxidation
  protein oxidation following burn injury: decreased protein oxidation
Sprague-Dawley rats
  rate of wound contraction (area of the scab): slower rate of wound contraction
[4]; [8]
  redox status of burn+peptide group as compared to burn (EPR): significant increase (recovery) in the redox status
  redox status of burn+peptide group as compared to control (EPR): significant decrease in the redox status
[4]; local burn, 3 mg/kg IP 30 min before burn and immediately after burn, 6 h timepoint
  rate of nitroxide reduction in gastrocnemius muscle: significantly increased the rate of nitroxide reduction
Sprague Dawley rats [5]; p<0.01
  VO2, BPep group compared to BSal group: significantly attenuated
Sprague Dawley rats [5]; p<0.05
  VCO2, BPep group compared to BSal group: significantly attenuated
  energy expenditure, BPep group compared to BSal group: significantly attenuated
UCP-1
  UCP-1 expression in brown adipose tissue, decrease in BPep group compared to BSal group: 32%
[6]; Burn + Peptide (n = 8), 3 mg/kg IP 30 min before burn and immediately after burn, 6 hours after burn
  Pi: 2.93 ± 0.56 µmol/g
[6]; Burn + Peptide* (n = 8), only one dose 3 mg/kg immediately after burn
  Pi: 1.41 ± 0.26 µmol/g
[6]; [9]
  Pi: 5.49 ± 0.28 µmol/g
[7]; Burn + Peptide (n = 8), 3 mg/kg IP 30 min prior to burn and immediately after the burn
  PCr: 3.25 ± 0.29 µmol/g
[7]; [9]
  ATP synthesis rate (reaction PCr → γATP): 0.50 ± 0.06 µmol/g/s
  PCr: 3.76 ± 0.51 µmol/g
Mitochondrial aconitase
  mitochondrial aconitase activity: decreased mitochondrial aconitase activity up to the control levels

Reference: US9457057B2, “Methods for the prevention and treatment of burn injuries and secondary complications” (The General Hospital Corporation, priority 2009, dated 2016)
